This test deals with HT-29 cells. In words: HT-29 cell necrosis/necroptosis inhibition (TNF-α + SMAC mimetic + zVAD-FMK; CellTiter-Glo cell viability). In kind it is cell-based. As to conditions: Homo sapiens. Summed up:
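Necroptosis was driven by TNF-α 10 ng/ml plus SMAC mimetic 6 μM and zVAD-FMK 10 μM in serum-free medium, with compounds as a 10-point threefold titration. After 20 h at 37 °C, ATP-based luminescence was read; EC50 values are geometric means of duplicate curves.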

The mark [1] stands for this setting: HT-29 cells, TNF-α 10 ng/ml + SMAC mimetic 6 μM + zVAD-FMK 10 μM, 20 hours, geometric mean, 10 points in duplicate, read-out: EC50 (Cell activity; Necrosis/Necroptosis Inhibitory Activity, Compounds 143-323).
Where [2] appears, read: HT-29 cells, TNF-α 10 ng/ml + SMAC mimetic 6 μM + zVAD-FMK 10 μM, 20 hours, geometric mean, 10 points in duplicate, read-out: EC50 (Cell activity; Necrosis/Necroptosis Inhibitory Activity, Compounds 1-142).

Where two headings read alike, the source gives them in different places.

Broadly, the EC50 is the midpoint of the concentration-response curve.

Turning to `CCS(=O)(=O)Nc1c(C)nn(-c2nc(N3CCN(C(=O)N4N=CC[C@H]4c4cc(F)cc(C#N)c4)CC3)ncc2F)c1C` [Compound 194, (S)—N-(1-(2-(4-(5-(3-cyano-5-fluorophenyl)-4,5-dihydro-1H-pyrazole-1-carbonyl)piperazin-1-yl)-5-fluoropyrimidin-4-yl)-3,5-dimethyl-1H-pyrazol-4-yl)ethanesulfonamide], under setting [1], the 50% effective concentration (EC50) lay in the range of 0.1 to 100 nM.

`Cn1ncc(Cl)c1-c1nc(N2CCN(C(=O)N3N=CC[C@H]3c3cc(F)cc(C#N)c3)CC2)ncc1F` [Compound 15, (5)-3-(1-(4-(4-(4-chloro-1-methyl-1H-pyrazol-5-yl)-5-fluoropyrimidin-2-yl)piperazine-1-carbonyl)-4,5-dihydro-1H-pyrazol-5-yl)-5-fluorobenzonitrile]: the EC50 under setting [2] was in the range of 0.1 to 100 nM.

In the case of `Cc1nn(-c2cc(N3CCN(C(=O)N4N=CC[C@H]4c4cc(F)cc(F)c4)CC3)ncn2)c(C)c1C(N)=O` [Compound 281, (S)-1-(6-(4-(5-(3,5-difluorophenyl)-4,5-dihydro-1H-pyrazole-1-carbonyl)piperazin-1-yl)pyrimidin-4-yl)-3,5-dimethyl-1H-pyrazole-4-carboxamide], under setting [1], the EC50 was in the range of 0.1 to 100 nM.

As to `Cc1nc(C)n(-c2nc(N3CCN(C(=O)N4N=CC[C@H]4c4cc(F)cc(F)c4)CC3)c(F)cc2F)n1` [Compound 232, (S)-(5-(3,5-difluorophenyl)-4,5-dihydro-1H-pyrazol-1-yl)(4-(6-(3,5-dimethyl-1H-1,2,4-triazol-1-yl)-3,5-difluoropyridin-2-yl)piperazin-1-yl)methanone], the EC50 under setting [1] lay within 0.1 to 100 nM.

As for `Cc1nc(CF)nn1-c1nc(N2CCN(C(=O)N3N=CC[C@H]3c3cc(F)cc(C#N)c3)CC2)ncc1F` [Compound 246], the EC50 under setting [1] lay in the range of 0.1 to 100 nM.

For `CC(=O)N1Cc2c(-c3nc(N4CCN(C(=O)N5N=CC[C@H]5c5cc(F)cc(C#N)c5)CC4)ncc3F)nn(C)c2C1` [Compound 152, (S)-3-(1-(4-(4-(5-acetyl-1-methyl-1,4,5,6-tetrahydropyrrolo[3,4-c]pyrazol-3-yl)-5-fluoropyrimidin-2-yl)piperazine-1-carbonyl)-4,5-dihydro-1H-pyrazol-5-yl)-5-fluorobenzonitrile], the 50% effective concentration (EC50) (HT-29, 20 h, read-out: EC50 (Cell activity; Necrosis/Necroptosis Inhibitory Activity, Compounds 143-323)) was in the range of 1000 to 10000 nM.

Consider `Cc1nn(CC(N)=O)c(C)c1-c1nc(N2CCN(C(=O)N3N=CC[C@H]3c3cc(F)cc(F)c3)CC2)ncc1F` [Compound 119, (S)-2-(4-(2-(4-(5-(3,5-difluorophenyl)-4,5-dihydro-1H-pyrazole-1-carbonyl)piperazin-1-yl)-5-fluoropyrimidin-4-yl)-3,5-dimethyl-1H-pyrazol-1-yl)acetamide], for which the EC50 under setting [2] is 0.1 to 100 nM.

For the compound `Cc1cc(C(N)=O)cn1-c1nc(N2CCN(C(=O)N3N=CC[C@H]3c3cc(F)cc(F)c3)CC2)ncc1F` [Compound 92, (S)-1-(2-(4-(5-(3,5-difluorophenyl)-4,5-dihydro-1H-pyrazole-1-carbonyl)piperazin-1-yl)-5-fluoropyrimidin-4-yl)-5-methyl-1H-pyrrole-3-carboxamide], under setting [2], the concentration giving a half-maximal response (EC50) lay within 0.1 to 100 nM.

`O=C(N1CCN(c2nccc(C3=NCCN3)n2)CC1)N1N=CC[C@H]1c1cc(F)cc(F)c1` [Compound 3, (S)-(5-(3,5-difluorophenyl)-4,5-dihydro-1H-pyrazol-1-yl)(4-(4-(4,5-dihydro-1H-imidazol-2-yl)pyrimidin-2-yl)piperazin-1-yl)methanone]: under setting [2], the EC50 is 0.1 to 100 nM.

`Cc1cnn(C)c1-c1ncc(F)c(N2CCN(C(=O)N3N=CCC3c3cscn3)CC2)n1` (stereo not shown) [Compound 160, (4-(2-(1,4-dimethyl-1H-pyrazol-5-yl)-5-fluoropyrimidin-4-yl)piperazin-1-yl)(5-(thiazol-4-yl)-4,5-dihydro-1H-pyrazol-1-yl)methanone]: the EC50 under setting [1] fell in the range of 0.1 to 100 nM.

With `Cc1cc[nH]c(=O)c1-c1nc(N2CCN(C(=O)N3N=CC[C@H]3c3cc(F)cc(C#N)c3)CC2)ncc1F` [Compound 164, (S)-3-fluoro-5-(1-(4-(5-fluoro-4-(4-methyl-2-oxo-1,2-dihydropyridin-3-yl)pyrimidin-2-yl)piperazine-1-carbonyl)-4,5-dihydro-1H-pyrazol-5-yl)benzonitrile], under setting [1], the EC50 lay in the range of 0.1 to 100 nM.

For `Cc1ncn(-c2nc(N3CCN(C(=O)N4N=CC[C@H]4c4cc(F)cc(F)c4)CC3)ncc2F)n1` [Compound 235, (S)-(5-(3,5-difluorophenyl)-4,5-dihydro-1H-pyrazol-1-yl)(4-(5-fluoro-4-(3-methyl1H-1,2,4-triazol-1-yl)pyrimidin-2-yl)piperazin-1-yl)methanone], the EC50 under setting [1] was 0.1 to 100 nM.

Regarding `Cc1nc(C)n(-c2nc(N3CCN(C(=O)N4N=CCC4c4cnc(C)s4)CC3)ncc2F)n1` (stereo not shown) [Compound 291, (4-(4-(3,5-dimethyl-1H-1,2,4-triazol-1-yl)-5-fluoropyrimidin-2-yl)piperazin-1-yl)(5-(2-methylthiazol-5-yl)-4,5-dihydro-1H-pyrazol-1-yl)methanone], the EC50 under setting [1] lay in the range of 0.1 to 100 nM.

For `Cc1nc(C#N)nn1-c1nc(N2CCN(C(=O)N3N=CC[C@H]3c3cc(F)cc(C#N)c3)CC2)ncc1F` [Compound 139, (S)-1-(2-(4-(5-(3-cyano-5-fluorophenyl)-4,5-dihydro-1H-pyrazole-1-carbonyl)piperazin-1-yl)-5-fluoropyrimidin-4-yl)-5-methyl-1H-1,2,4-triazole-3-carbonitrile], the EC50 under setting [2] was in the range of 0.1 to 100 nM.

As for `Cn1ncnc1-c1ccc(F)c(N2CCN(C(=O)N3N=CC[C@H]3c3cc(F)cc(F)c3)CC2)n1` [Compound 175, (S)-(5-(3,5-difluorophenyl)-4,5-dihydro-1H-pyrazol-1-yl)(4-(3-fluoro-6-(1-methyl-1H-1,2,4-triazol-5-yl)pyridin-2-yl)piperazin-1-yl)methanone], under setting [1], the EC50 is 0.1 to 100 nM.

On to `CCn1nc(C)n(-c2nc(N3CCN(C(=O)N4N=CC[C@H]4c4cc(F)cc(C#N)c4)CC3)ncc2F)c1=O` [Compound 183, (S)-3-(1-(4-(4-(1-ethyl-3-methyl-5-oxo-1,5-dihydro-4H-1,2,4-triazol-4-yl)-5-fluoropyrimidin-2-yl)piperazine-1-carbonyl)-4,5-dihydro-1H-pyrazol-5-yl)-5-fluorobenzonitrile], for which, under setting [1], the EC50 is 0.1 to 100 nM.

With `Cc1nn(-c2ccnc(N3CCN(C(=O)N4N=CC[C@H]4c4cncc(F)c4)CC3)n2)c(C)c1C(N)=O` [Compound 285, (S)-1-(2-(4-(5-(5-fluoropyridin-3-yl)-4,5-dihydro-1H-pyrazole-1-carbonyl)piperazin-1-yl)pyrimidin-4-yl)-3,5-dimethyl-1H-pyrazole-4-carboxamide], the EC50 under setting [1] lay within 0.1 to 100 nM.

As to `N#Cc1cc(F)cc([C@@H]2CC=NN2C(=O)N2CCN(c3nccc(-n4cc(C(N)=O)cn4)n3)CC2)c1` [Compound 102, (S)-1-(2-(4-(5-(3-cyano-5-fluorophenyl)-4,5-dihydro-1H-pyrazole-1-carbonyl)piperazin-1-yl)pyrimidin-4-yl)-1H-pyrazole-4-carboxamide], the EC50 under setting [2] fell in the range of 0.1 to 100 nM.

For `Cc1nn(S(C)(=O)=O)c(C)c1-c1nc(N2CCN(C(=O)N3N=CC[C@H]3c3cc(F)cc(C#N)c3)CC2)ncc1F` [Compound 208, (S)-3-(1-(4-(4-(3,5-dimethyl-1-(methylsulfonyl)-1H-pyrazol-4-yl)-5-fluoropyrimidin-2-yl)piperazine-1-carbonyl)-4,5-dihydro-1H-pyrazol-5-yl)-5-fluorobenzonitrile], the EC50 under setting [1] lay within 0.1 to 100 nM.

Regarding `Cn1ncc(Cl)c1-c1nc(N2CCN(C(=O)N3N=CC[C@H]3c3cc(F)cc(F)c3)CC2)ncc1F` [Compound 68, (S)-(4-(4-(4-chloro-1-methyl-1H-pyrazol-5-yl)-5-fluoropyrimidin-2-yl)piperazin-1-yl)(5-(3,5-difluorophenyl)-4,5-dihydro-1H-pyrazol-1-yl)methanone], the EC50 under setting [2] was 0.1 to 100 nM.

As for `Cc1nn(CCO)c(C)c1-c1nc(N2CCN(C(=O)N3N=CC[C@H]3c3cc(F)cc(F)c3)CC2)ncc1F` [Compound 118, (S)-(5-(3,5-difluorophenyl)-4,5-dihydro-1H-pyrazol-1-yl)(4-(5-fluoro-4-(1-(2-hydroxyethyl)-3,5-dimethyl-1H-pyrazol-4-yl)pyrimidin-2-yl)piperazin-1-yl)methanone], the EC50 under setting [2] fell in the range of 0.1 to 100 nM.

On to `Cc1csc(C2CC=NN2C(=O)N2CCN(c3nc(-c4c(C)cnn4C)ncc3F)CC2)n1` (stereo not shown) [Compound 161, (4-(2-(1,4-dimethyl-1H-pyrazol-5-yl)-5-fluoropyrimidin-4-yl)piperazinyl)(5-(4-methylthiazol-2-yl)-4,5-dihydro-1H-pyrazol-1-yl)methanone], for which the EC50 under setting [1] was 0.1 to 100 nM.

`Cc1nc(C)n(-c2cc(N3CCN(C(=O)N4N=CC[C@H]4c4cc(F)cc(F)c4)CC3)c(F)cn2)n1` [Compound 271, (S)-(5-(3,5-difluorophenyl)-4,5-dihydro-1H-pyrazol-1-yl)(4-(2-(3,5-dimethyl-1H-1,2,4-triazol-1-yl)-5-fluoropyridin-4-yl)piperazin-1-yl)methanone]: the EC50 under setting [1] lay in the range of 0.1 to 100 nM.

As to `O=C(N1CCN(c2ncc(F)c(-c3cc[nH]n3)n2)CC1)N1N=CC[C@H]1c1cc(F)cc(F)c1` [Compound 7, (S)-(5-(3,5-difluorophenyl)-4,5-dihydro-1H-pyrazol-1-yl)(4-(5-fluoro-4-(1H-pyrazol-3-yl)pyrimidin-2-yl)piperazin-1-yl)methanone], the EC50 under setting [2] was in the range of 0.1 to 100 nM.

For `Cc1nnn(C)c1-c1nc(N2CCN(C(=O)N3N=CC[C@H]3c3cc(F)cc(F)c3)CC2)ncc1F` [Compound 71, (S)-(5-(3,5-difluorophenyl)-4,5-dihydro-1H-pyrazol-1-yl)(4-(4-(1,4-dimethyl-1H-1,2,3-triazol-5-yl)-5-fluoropyrimidin-2-yl)piperazin-1-yl)methanone], the EC50 under setting [2] lay in the range of 0.1 to 100 nM.

The values are drawn from patent publication US12454529B2, “Piperazine cyclic ureas” (SIRONAX LTD., priority 2020, dated 2025).
